From paper PMC7708037, “Targeting OGG1 arrests cancer cell proliferation by inducing replication stress” (Nucleic Acids Research, 2020) come the findings set out here.

For one data set, the system named is CD3+ T-cells. Put plainly: CD3 flow cytometry assay (T-cell survival). Also on record: Survival of CD3+ T-cells (flow cytometry): dose or concentration left out as unconfirmed. The class given is cell-based. How it is done:
The experiment was performed on blood cells from 4 different healthy individuals, with three replicates each. Human peripheral blood mononuclear cells were isolated from fresh buffy coats obtained from healthy donors via the Karolinska Hospital, Stockholm, Sweden. For separation, Ficoll-Paque PLUS density medium (17144003, GE Healthcare) and SepMate separation tubes (85450, StemCell) were used, according to manufacturer's instructions. Briefly, buffy coat diluted 1:1 with PBS and layered on 15 ml of Ficoll-Paque PLUS in the SepMate tubes was spun down for 10 min at […]. The upper layer of the tube content was then poured into new falcon tubes and washed twice with PBS.
Cells were seeded out in round bottom 96-well plates (83.3925.500, Sarstedt) in RPMI Medium 1640 containing GlutaMAX™ (61870-010, ThermoFisher) supplemented with 10% human AB+ male heat inactivated clotted whole blood serum (H5667, Sigma-Aldrich) and 100 U/ml penicillin/streptomycin (15140122, Gibco). […] Only viable cells were counted, using a TC20™ automated cell counter (Bio-Rad) and Trypan blue (1450021, Bio-Rad). […]
10 000 events from an FSC-SSC gate set on the typical living lymphocyte population were collected and the data was compensated and analyzed using FlowJo 10.5.3. […] The number of CD3 positive, viable events was quantified and then divided by the number of Precision Count Beads™ collected per tube. […]

For data set [1], the system named is OGG1 substrate lesions in A3 cells. Put plainly: OGG1-modified Comet assay. The conditions noted are these: 10 μM, 72 h. It is filed as cell-based, human. How it is done:
8-oxodG detection in genomic DNA through LC–MS/MS ([39]) and single-cell electrophoresis ([40]) were performed as described.
Figure 5. Effect of TH5487 on DNA lesions, DNA damage markers and DNA replication. (A) 8-oxodG accumulation in A3 cells. A3 cells were treated with 20 mM KBrO3 for 1 h or with 10 μM TH5487 for the indicated times, and the amount of genomic 8-oxodG was quantified with LC-MS/MS. Data are average ±SD of five replicates from two independent experiments. (B) Comet assay. A3 cells were treated with 10 μM TH5487 for 72 h and strand-breaks and OGG1 substrate lesions were analyzed with the OGG1-modified Comet assay. Representative images of cells are shown. (C) Violin blot of Comet tail moment. Cells were treated as in B, and the tail moment of the cells were analyzed using blinded automatic analysis (n = 200 per condition from two independent experiments). The full line indicates median, and the dotted lines quartiles. (D) Violin blot of phosphorylated γH2AX intensity. A3 cells were treated with 0.1% DMSO or 10 μM TH5487 for the indicated times and stained for phosphorylated γH2AX. […] At least 33 000 nuclei per group were quantified from three independent experiments. […] At least 300 forks were scored per condition. Statistical significance was determined using unpaired, two-sided t-tests (**P < 0.01, ***P < 0.001 and ****P < 0.0001; ns, non-significant).

For `O=C(Nc1ccc(I)cc1)N1CCC(n2c(=O)[nH]c3c(Br)cccc32)CC1` [TH5487], the “Survival of CD3+ T-cells (flow cytometry)” value in the data set with CD3+ T-cells (Dynabeads-activated, 6 days) is “well tolerated”. The “Tolerance by primary T-cells” value in the data set with CD3+ T-cells (the same dose (10 μM), healthy donors) is “well tolerated”. Further, the “Increase in OGG1-induced tail length (Comet)” value in data set [1] is recorded as about 50%.
